Laboratory results reported in PMC10178204, “Peptaibol Analogs Show Potent Antibacterial Activity against Multidrug Resistant Opportunistic Pathogens” (International Journal of Molecular Sciences, 2023).
Converted amounts (≈) assume the structure as drawn. “And” between values parts separate entries of the source, which are not always exact repeats. Identical values can stand only once. Non-standard residues stand in square brackets, D forms with d. Residues, ends and D or L forms follow the SMILES beside them. *: point of attachment. Leu(ol) = CC(C)C[C@H](N)CO; Octanoyl = CCCCCCCC(=O)*; Aib = CC(C)(N)C(=O)O

Tests used:
[1] = tested on: Acinetobacter baumannii ATCC 17978; conditions: for MBC Aba / MIC Aba: MHB, 5 × 10^5 CFU/mL, 18 h, 35 °C, triplicate; for MIC against A. baumannii, in molar units: corresponding to 2 and 8 μg/mL
Summary of the method: (§1)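 Broth microdilution in Mueller–Hinton broth, run in triplicate, inoculum 5 × 10^5 CFU/mL per CLSI M07-A10; MIC and MBC both determined. Peptides dissolved in DMSO at 25 mg/mL as stock.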

[2] = tested on: Bacillus subtilis ATCC 6633; conditions: MHB, 5 × 10^5 CFU/mL, 18 h, 35 °C, triplicate
Summary of the method: as §1

[3] = tested on: Enterococcus faecalis ATCC 29212; conditions: MHB, 5 × 10^5 CFU/mL, 18 h, 35 °C, triplicate
Summary of the method: as §1

Escherichia coli CCUGT = conditions: MHB, 5 × 10^5 CFU/mL, 18 h, 35 °C, triplicate
Summary of the method: as §1

[4] = tested on: Klebsiella pneumoniae ATCC 13833; conditions: MHB, 5 × 10^5 CFU/mL, 18 h, 35 °C, triplicate
Summary of the method: as §1

[5] = tested on: Pseudomonas aeruginosa ATCC 27853; conditions: MHB, 5 × 10^5 CFU/mL, 18 h, 35 °C, triplicate
Summary of the method: as §1

[6] = tested on: Staphylococcus aureus ATCC 25923; conditions: MHB, 5 × 10^5 CFU/mL, 18 h, 35 °C, triplicate
Summary of the method: as §1

[7] = tested on: Streptococcus pyogenes ATCC 12344; conditions: MHB, 5 × 10^5 CFU/mL, 18 h, 35 °C, triplicate
Summary of the method: as §1

[8] = tested on: reference Gram-positive and Gram-negative strains
Summary of the method: as §1

[9] = tested on: A. baumannii SI-12 (OXA-23); conditions: MHB, 5 × 10^5 CFU/mL, 18 h, 35 °C, triplicate
Description: (§2) The minimum inhibitory concentration (MIC) and the minimum bactericidal concentration (MBC) of the compounds were determined in triplicate using Mueller–Hinton broth (MHB). […] Therefore, we decided to dissolve all peptides in DMSO to a final concentration of 25 mg/mL, for consistency. The bacteria inoculum was 5 × 10^5 CFU/mL, as recommended by CLSI (Document M07-A10, 2015). […] Reference-type strains, including representatives of both Gram-positive bacteria (Bacillus subtilis ATCC 6633, Enterococcus faecalis ATCC 29212, Staphylococcus aureus ATCC 25923, the methicillin-resistant Staphylococcus aureus ATCC 43300 (MRSA), Streptococcus pyogenes ATCC 12344) and Gram-negative bacteria (Escherichia coli CCUGT, Klebsiella pneumoniae ATCC 13833, Pseudomonas aeruginosa ATCC 27853, and Acinetobacter baumannii ATCC 17978), were acquired from ATCC or CCUG culture collections. Other antibiotic-resistant clinical isolates were present in our collection at the University Teaching Hospital (Azienda Ospedaliero-Universitaria Senese ‘Santa Maria alle Scotte’) in Siena, Tuscany, Italy. Specifically, MDR carbapenem-hydrolyzing class D β-lactamase-producing Acinetobacter baumannii and metallo-β-lactamase-producing Pseudomonas aeruginosa were used in this study (Table 4).

[10] = tested on: A. baumannii SI-310 (OXA-24); conditions: colistin-resistant isolate; MHB, 5 × 10^5 CFU/mL, 18 h, 35 °C, triplicate
Description: as §2

[11] = tested on: A. baumannii SI-648 (OXA-23, OXA-51-like); conditions: MHB, 5 × 10^5 CFU/mL, 18 h, 35 °C, triplicate
Description: as §2

[12] = tested on: P. aeruginosa 101/1477 (IMP-1); conditions: MHB, 5 × 10^5 CFU/mL, 18 h, 35 °C, triplicate
Description: as §2

[13] = tested on: P. aeruginosa 506/99 (VIM-2); conditions: MHB, 5 × 10^5 CFU/mL, 18 h, 35 °C, triplicate
Description: as §2

[14] = tested on: P. aeruginosa VA-182/00 (VIM-2); conditions: MHB, 5 × 10^5 CFU/mL, 18 h, 35 °C, triplicate
Description: as §2

[15] = tested on: P. aeruginosa VR-143/97 (VIM-1); conditions: MHB, 5 × 10^5 CFU/mL, 18 h, 35 °C, triplicate
Description: as §2

[16] = tested on: S. aureus ATCC 43300 (MRSA); conditions: MHB, 5 × 10^5 CFU/mL, 18 h, 35 °C, triplicate
Description: as §2

Row | Molecule | MBC Aba [1] [µg/mL] | MIC Aba [1] [µg/mL] | MIC against A. baumannii, in molar units [1] [µM] | MBC Bsu [2] [µg/mL] | MIC Bsu [2] [µg/mL] | MBC Efa [3] [µg/mL] | MIC Efa [3] [µg/mL] | MBC Eco (Escherichia coli CCUGT) [µg/mL] | MIC Eco (Escherichia coli CCUGT) [µg/mL] | MIC Kpn [4] [µg/mL] | MIC Pae [5] [µg/mL] | MIC Sau [6] [µg/mL] | MBC Spy [7] [µg/mL] | MIC Spy [7] [µg/mL] | MBC A. baumannii SI-12 (OXA-23) [9] [µg/mL] | MIC A. baumannii SI-12 (OXA-23) [9] | MBC A. baumannii SI-310 (OXA-24) [10] [µg/mL] | MIC A. baumannii SI-310 (OXA-24) [10] | MBC A. baumannii SI-648 (OXA-23, OXA-51-like) [11] [µg/mL] | MIC A. baumannii SI-648 (OXA-23, OXA-51-like) [11] | further results
1 | 1-Oct-Aib-Gly-Leu-Aib-Lys-Lys-Leu-Aib-Lys-Ile-Lol [Peptide 5] | 16 | 4 | 1.8 to 7.2 | 16 | 8 | 8 | 4 | > 16 | 8 | 16 | 8 | 16 | 4 | 4 | 4 | 4 μg/mL and 4/4 μg/mL | 4 | 2 µg/mL | 4 | 4 μg/mL and 4/4 μg/mL | MBC Kpn [4]: 16 µg/mL; MBC Pae [5]: > 16 µg/mL; MBC Sau [6]: 16 µg/mL; MIC against six of the eight bacterial strains tested ([8]; reference panel): 4 to 8 µg/mL; MIC against the other two strains ([8]; reference panel): 16 µg/mL; MBC P. aeruginosa 101/1477 (IMP-1) [12]: 8 µg/mL; MIC P. aeruginosa 101/1477 (IMP-1) [12]: 8 µg/mL; MBC P. aeruginosa 506/99 (VIM-2) [13]: 8 µg/mL; MIC P. aeruginosa 506/99 (VIM-2) [13]: 8 µg/mL; MBC P. aeruginosa VA-182/00 (VIM-2) [14]: 8 µg/mL; MIC P. aeruginosa VA-182/00 (VIM-2) [14]: 8 µg/mL; MBC P. aeruginosa VR-143/97 (VIM-1) [15]: 8 µg/mL; MIC P. aeruginosa VR-143/97 (VIM-1) [15]: 8 µg/mL; MBC S. aureus ATCC 43300 (MRSA) [16]: 2 µg/mL; MIC S. aureus ATCC 43300 (MRSA) [16]: 2 µg/mL
2 | CCCCCCCC(=O)NC(C)(C)C(=O)N[C@@H](CCCCN)C(=O)N[C@@H](CC(C)C)C(=O)NC(C)(C)C(=O)N[C@@H](CCCCN)C(=O)NCC(=O)N[C@@H](CC(C)C)C(=O)NC(C)(C)C(=O)NCC(=O)N[C@H](C(=O)N[C@H](CO)CC(C)C)[C@@H](C)CC [Peptide 1, 1-Oct-Aib-Lys-Leu-Aib-Lys-Gly-Leu-Aib-Gly-Ile-Lol] (Octanoyl-[Aib]KL[Aib]KGL[Aib]GI[Leu(ol)]) | 16 (≈ 13.2 µM) | 4 (≈ 3.31 µM) | 1.8 to 7.2 | 16 (≈ 13.2 µM) | 4 (≈ 3.31 µM) | 2 (≈ 1.65 µM) | 2 (≈ 1.65 µM) | 32 (≈ 26.5 µM) | 32 (≈ 26.5 µM) | > 128 | 16 (≈ 13.2 µM) | 16 (≈ 13.2 µM) | 4 (≈ 3.31 µM) | 2 (≈ 1.65 µM) | 8 (≈ 6.62 µM) | 4 µg/mL (≈ 3.31 µM) | 4 (≈ 3.31 µM) | 4 μg/mL and 4/4 μg/mL | 16 (≈ 13.2 µM) | 8 µg/mL (≈ 6.62 µM) | lowest MIC ([8]; lowest value over the eight reference strains): 2 µg/mL; MBC P. aeruginosa 101/1477 (IMP-1) [12]: 16 µg/mL (≈ 13.2 µM); MIC P. aeruginosa 101/1477 (IMP-1) [12]: 8 µg/mL (≈ 6.62 µM); MBC P. aeruginosa 506/99 (VIM-2) [13]: 32 µg/mL (≈ 26.5 µM); MIC P. aeruginosa 506/99 (VIM-2) [13]: 16 µg/mL (≈ 13.2 µM); MBC P. aeruginosa VA-182/00 (VIM-2) [14]: 16 µg/mL (≈ 13.2 µM); MIC P. aeruginosa VA-182/00 (VIM-2) [14]: 16 µg/mL (≈ 13.2 µM); MBC P. aeruginosa VR-143/97 (VIM-1) [15]: 32 µg/mL (≈ 26.5 µM); MIC P. aeruginosa VR-143/97 (VIM-1) [15]: 32 µg/mL (≈ 26.5 µM); MBC S. aureus ATCC 43300 (MRSA) [16]: 2 µg/mL (≈ 1.65 µM); MIC S. aureus ATCC 43300 (MRSA) [16]: 2 µg/mL (≈ 1.65 µM)
